Assay: molar heat capacity at constant pressure
Settings: 101.33 kPa, Crystal, relaxation calorimetry

O=C(O)c1ccccc1 [benzoic acid]
Settings | molar heat capacity at constant pressure [J/K/mol]
1.93 K | 0.01333
2.15 K | 0.01845
2.39 K | 0.0255
2.66 K | 0.03397
2.96 K | 0.04707
3.29 K | 0.06572
3.65 K | 0.08963
4.05 K | 0.1233
4.49 K | 0.1714
4.99 K | 0.2363
5.54 K | 0.3302
6.14 K | 0.4631
6.81 K | 0.6487
7.56 K | 0.9052
8.38 K | 1.253
9.29 K | 1.714
10.26 K | 2.266
11.36 K | 3.021
12.61 K | 3.971
13.99 K | 5.144
15.52 K | 6.537
17.23 K | 8.219
19.12 K | 10.17
21.21 K | 12.39
23.54 K | 14.97
26.1 K | 17.79
28.96 K | 20.88
32.16 K | 24.14
35.67 K | 27.61
39.58 K | 31.21
43.9 K | 34.8
48.73 K | 38.39
54.07 K | 42.02
60 K | 45.71
66.57 K | 49.33
73.89 K | 52.81
82 K | 56.69
91.01 K | 60.28
100.97 K | 63.46
111.11 K | 67.66
121.2 K | 71.28
131.23 K | 75.08
141.33 K | 78.93
151.47 K | 82.66
161.56 K | 86.28
171.65 K | 90.21
181.75 K | 94.38
191.83 K | 98.14
201.92 K | 101.91
212.02 K | 106.35
222.12 K | 110.99
232.21 K | 115.4
242.21 K | 119.97
252.4 K | 124.67
262.46 K | 128.8
272.51 K | 133.51
282.55 K | 138.2
292.7 K | 141.62
302.71 K | 144.34

[Al+3].[Al+3].[O-2].[O-2].[O-2] [aluminum oxide (Al2O3)]
Settings | molar heat capacity at constant pressure [J/K/mol]
1.93 K | 7.666e-05
2.15 K | 9.655e-05
2.39 K | 0.0001341
2.65 K | 0.0001785
2.95 K | 0.0002464
3.28 K | 0.0003342
3.64 K | 0.0004613
4.04 K | 0.0006149
4.49 K | 0.0008379
4.98 K | 0.001136
5.523 K | 0.001541
6.13 K | 0.00216
6.8 K | 0.002926
7.54 K | 0.004006
8.36 K | 0.005388
9.27 K | 0.007325
10.28 K | 0.009979
11.37 K | 0.0134
12.61 K | 0.01843
13.99 K | 0.02532
15.52 K | 0.03431
17.22 K | 0.04685
19.12 K | 0.06451
21.23 K | 0.08864
23.58 K | 0.1229
26.17 K | 0.1719
29.08 K | 0.2396
32.22 K | 0.3344
35.73 K | 0.4743
39.62 K | 0.6761
43.94 K | 0.9644
48.73 K | 1.379
54.06 K | 1.968
59.98 K | 2.789
66.54 K | 3.91
73.85 K | 5.425
81.95 K | 7.444
90.93 K | 9.991
100.91 K | 13.15
111.18 K | 16.79
121.13 K | 20.54
131.17 K | 24.48
141.28 K | 28.54
151.4 K | 32.54
161.47 K | 36.62
171.56 K | 40.51
181.6 K | 44.37
191.67 K | 48.13
201.78 K | 51.63
211.87 K | 55.13
221.94 K | 58.53
232 K | 61.73
241.98 K | 64.63
252.05 K | 67.6
262.17 K | 70.28
272.22 K | 72.77
282.18 K | 75.28
292.31 K | 77.45
297.27 K | 78.3
302.27 K | 79.34
302.29 K | 79.63
307.31 K | 80.41
312.34 K | 81.4
317.3 K | 82.41
322.32 K | 83.31
327.42 K | 84.26
332.46 K | 85.09
337.41 K | 85.84
342.44 K | 86.73
347.58 K | 87.72
352.67 K | 88.65
357.7 K | 89.47
362.73 K | 90.24
367.75 K | 90.97
372.77 K | 91.84
377.77 K | 92.8
382.79 K | 93.27
387.76 K | 94.14
392.76 K | 95.04
397.77 K | 95.81

[Cu] [copper]
Settings | molar heat capacity at constant pressure [J/K/mol]
1.93 K | 0.001713
2.15 K | 0.002021
2.39 K | 0.002319
2.65 K | 0.002809
2.95 K | 0.003326
3.28 K | 0.003967
3.64 K | 0.004911
4.04 K | 0.005973
4.48 K | 0.007493
4.97 K | 0.009444
5.51 K | 0.01204
6.11 K | 0.01543
6.78 K | 0.0199
7.52 K | 0.02598
8.33 K | 0.03421
9.24 K | 0.04517
10.25 K | 0.06013
11.34 K | 0.08043
12.58 K | 0.1091
13.96 K | 0.149
15.48 K | 0.2052
17.18 K | 0.2844
19.06 K | 0.3981
21.16 K | 0.5588
23.49 K | 0.7857
26.06 K | 1.094
28.95 K | 1.514
32.07 K | 2.062
35.61 K | 2.768
39.52 K | 3.635
43.85 K | 4.662
48.66 K | 5.846
54.01 K | 7.178
59.94 K | 8.631
66.51 K | 10.16
73.83 K | 11.68
81.93 K | 13.27
90.94 K | 14.71
100.89 K | 16.04
111.02 K | 17.3
121.12 K | 18.35
131.2 K | 19.24
141.26 K | 19.93
151.41 K | 20.52
161.51 K | 21.05
171.6 K | 21.5
181.69 K | 21.94
191.78 K | 22.25
201.87 K | 22.55
212 K | 22.82
222.11 K | 23.11
232.19 K | 23.37
242.21 K | 23.57
252.34 K | 23.79
262.41 K | 23.94
272.42 K | 24.1
282.6 K | 24.3
292.63 K | 24.41
297.94 K | 24.49
302.69 K | 24.51
302.72 K | 24.54
307.82 K | 24.55
312.89 K | 24.59
317.83 K | 24.7
322.91 K | 24.68
328.03 K | 24.79
333.05 K | 24.87
338.06 K | 24.81
343.13 K | 24.9
348.29 K | 25.01
353.34 K | 25.13
358.42 K | 25.09
363.5 K | 25.13
368.53 K | 25.23
373.56 K | 25.3
378.59 K | 25.4
383.61 K | 25.45
388.61 K | 25.48
393.64 K | 25.58
398.65 K | 25.68

— the NIST ThermoML archive (doi:10.1016/j.jct.2015.08.031)
